Patent US10543215B2, “Combination therapy of cardiac myosin activator and sinus node if current inhibitor” (AMGEN INC., priority 2015, dated 2020)

Tested on: conscious telemetered beagle dogs
Test: Left-ventricular hemodynamic, mechanical and timing indices by radio-telemetry before and during IV OM or vehicle, on repeated oral IVA or placebo
Type: in vivo, beagle dog
Protocol: Healthy male beagle dogs (n=7) instrumented with radio-telemetry units providing continuous single-lead electrocardiogram (ECG), as well as systemic (arterial, AoP) and left-ventricular (LVP) pressure signals were used for this study. Following sling acclimation, the animals were assigned to receive repeated oral (via gavage) treatments with either Ivabradine (IVA, 5 mg/kg bid) or a volume-matched placebo-control (sterile water, CTRL) for 5 days, administered at a dose volume of 10 mL/kg, in a cross over design.
The animals were sling-restrained and were subjected to acute intravenous administration of either sterile water (VEH, on Days 4 and 11 of dosing) or Omecamtiv Mecarbil (OM, on Days 5 and 12 of dosing). OM treatments were performed over a 3-hour infusion duration, following a dose-escalation design targeting plasma concentrations of 600 and 1000 ng/mL (each over 90 minutes, with a 30 minute loading infusion followed by a 60 minute maintenance infusion) for a cumulative dose of 5.293 mg/kg (as shown in Table A below). The IV vehicle treatments were time- and volume-matched.
Telemetered data were collected continuously for at least 90 minutes prior to and during dosing, as well as for at least 20 hours post-dose. The LVP and ECG signals were digitized at a sampling rate of at least 1000 Hz. The data were analyzed for heart rate (HR) and left-ventricular hemodynamic/mechanical indices that were obtained from the pressure waveform, including mean systolic (MSP) and end-diastolic (filling, EDP) pressures, the peak rates of pressure change during systole/diastole (dP/dtmax/min), as well as the time-constant of relaxation (tau) and a contractility index (CI: dP/dtmax normalized by the pressure at dP/dtmax). The data were also analyzed for systolic and diastolic intervals, including the estimated durations of the systolic ejection (SET), contraction (CT), active relaxation (RT) and filling intervals (FT), as well as the systolic-to-diastolic interval ratio (S/D: SET/RT+FT), which were derived from the left-ventricular pressure waveform.
The left-ventricular indices were evaluated only in the sling-restrained animals before and during IV treatment with OM or vehicle. Cardiovascular responses at each dose level were monitored for up to 90 minutes, i.e., over 3 hours total (during IV dosing of VEH and OM on Days 4, 5, 11, and 12 in the dose administration paradigm). Overall, in-sling cardiovascular data are reported at the following pre-determined/targeted time points: prior to dosing (i.e., at baseline, PRE) and approximately at the end of each infusion period (i.e., up to 4 time points during dosing, D1 to D4). Signals were analyzed continuously in 5-minute epochs, with pre-administration (i.e., PRE) values representing the overall mean over at least 5-epochs (i.e., 25 minutes) taken immediately prior to the onset of dosing, while during-dosing values reflect 5-minute averages (i.e., 1 epoch) taken prior to the (estimated) termination of each infusion. Data are presented as both means with standard deviations in summarizing tables/figure; beat-to-beat plots against heart rate are part of the study file.

[1] = D1, end of 30-min loading infusion, target OM 600 ng/mL
[2] = D2, end of 60-min maintenance infusion, target OM 600 ng/mL
[3] = D3, end of 30-min loading infusion, target OM 1000 ng/mL
[4] = D4, end of 60-min maintenance infusion, target OM 1000 ng/mL
[5] = PRE, before IV dosing (baseline)
[6] = baseline after repeated oral IVA 5 mg/kg bid, mean pre-dosing averages across study days
[7] = baseline after repeated oral IVA 5 mg/kg bid, vs. placebo-control

COc1cc2c(cc1OC)CC(=O)N(CCCN(C)C[C@H]1Cc3cc(OC)c(OC)cc31)CC2 [IVA]
CT % vs. PRE [1]: 4% | CT (contraction time) [1]: 63.8 ms | EDP % vs. PRE [1]: −10% | EDP (left-ventricular end-diastolic pressure) [1]: 14.4 mmHg | FT % vs. PRE [1]: 11% | FT (filling time) [1]: 586 ms | HR % vs. PRE [1]: −9% | HR (heart rate) [1]: 76 bpm | MSP % vs. PRE [1]: 0% | MSP (left-ventricular mean systolic pressure) [1]: 138 mmHg | RT % vs. PRE [1]: 1% | RT (relaxation time) [1]: 88 ms | S/D % vs. PRE [1]: −4% | S/D (systolic to diastolic ratio, SET/RT + FT) [1]: 0.2 | SET % vs. PRE [1]: 4% | SET (systolic ejection time) [1]: 161 ms | Tau % vs. PRE [1]: 3 ± 2% | Tau (left-ventricular relaxation time-constant) [1]: 28.7 ± 1.7 ms | Vmax % vs. PRE [1]: 0 ± 1% | Vmax (estimated maximal velocity of myocardial contractile-element shortening) [1]: 36.9 ± 1.3 s⁻¹ | dP/dtmax % vs. PRE [1]: −2% | dP/dtmax (peak rate of LV pressure change during systole) [1]: 2,606 mmHg/s | dP/dtmin % vs. PRE [1]: −2% | dP/dtmin (peak rate of LV pressure change during diastole) [1]: −2,365 mmHg/s | CT % vs. PRE [2]: 9% | CT (contraction time) [2]: 67.2 ms | EDP % vs. PRE [2]: 0% | EDP (left-ventricular end-diastolic pressure) [2]: 15.3 mmHg | FT % vs. PRE [2]: 8% | FT (filling time) [2]: 571 ms | HR % vs. PRE [2]: −9% | HR (heart rate) [2]: 76 bpm | MSP % vs. PRE [2]: 5% | MSP (left-ventricular mean systolic pressure) [2]: 145 mmHg | RT % vs. PRE [2]: 4% | RT (relaxation time) [2]: 90 ms | S/D % vs. PRE [2]: 0% | S/D (systolic to diastolic ratio, SET/RT + FT) [2]: 0.25 | SET % vs. PRE [2]: 6% | SET (systolic ejection time) [2]: 163 ms | Tau % vs. PRE [2]: 6 ± 2% | Tau (left-ventricular relaxation time-constant) [2]: 29.3 ± 1.0 ms | Vmax % vs. PRE [2]: −1 ± 1% | Vmax (estimated maximal velocity of myocardial contractile-element shortening) [2]: 36.7 ± 0.8 s⁻¹ | dP/dtmax % vs. PRE [2]: 2% | dP/dtmax (peak rate of LV pressure change during systole) [2]: 2,704 mmHg/s | dP/dtmin % vs. PRE [2]: 4% | dP/dtmin (peak rate of LV pressure change during diastole) [2]: −2,492 mmHg/s | CT % vs. PRE [3]: 6% | CT (contraction time) [3]: 64.9 ms | EDP % vs. PRE [3]: −4% | EDP (left-ventricular end-diastolic pressure) [3]: 14.5 mmHg | FT % vs. PRE [3]: 24% | FT (filling time) [3]: 651 ms | HR % vs. PRE [3]: −17% | HR (heart rate) [3]: 69 bpm | MSP % vs. PRE [3]: 3% | MSP (left-ventricular mean systolic pressure) [3]: 143 mmHg | RT % vs. PRE [3]: 6% | RT (relaxation time) [3]: 92 ms | S/D % vs. PRE [3]: −8% | S/D (systolic to diastolic ratio, SET/RT + FT) [3]: 0.23 | SET % vs. PRE [3]: 8% | SET (systolic ejection time) [3]: 167 ms | Tau % vs. PRE [3]: 5 ± 3% | Tau (left-ventricular relaxation time-constant) [3]: 29.2 ± 1.0 ms | Vmax % vs. PRE [3]: 1 ± 2% | Vmax (estimated maximal velocity of myocardial contractile-element shortening) [3]: 37.2 ± 0.7 s⁻¹ | dP/dtmax % vs. PRE [3]: 0% | dP/dtmax (peak rate of LV pressure change during systole) [3]: 2,662 mmHg/s | dP/dtmin % vs. PRE [3]: 1% | dP/dtmin (peak rate of LV pressure change during diastole) [3]: −2,425 mmHg/s | CT % vs. PRE [4]: 11% | CT (contraction time) [4]: 67.9 ms | EDP % vs. PRE [4]: −9% | EDP (left-ventricular end-diastolic pressure) [4]: 14.2 mmHg | FT % vs. PRE [4]: 9% | FT (filling time) [4]: 577 ms | HR % vs. PRE [4]: −12% | HR (heart rate) [4]: 74 bpm | MSP % vs. PRE [4]: 4% | MSP (left-ventricular mean systolic pressure) [4]: 143 mmHg | RT % vs. PRE [4]: 5% | RT (relaxation time) [4]: 91 ms | S/D % vs. PRE [4]: 0% | S/D (systolic to diastolic ratio, SET/RT + FT) [4]: 0.25 | SET % vs. PRE [4]: 7% | SET (systolic ejection time) [4]: 165 ms | Tau % vs. PRE [4]: 3 ± 2% | Tau (left-ventricular relaxation time-constant) [4]: 28.8 ± 1.5 ms | Vmax % vs. PRE [4]: 1 ± 1% | Vmax (estimated maximal velocity of myocardial contractile-element shortening) [4]: 37.3 ± 1.0 s⁻¹ | dP/dtmax % vs. PRE [4]: 2% | dP/dtmax (peak rate of LV pressure change during systole) [4]: 2,702 mmHg/s | dP/dtmin % vs. PRE [4]: 2% | dP/dtmin (peak rate of LV pressure change during diastole) [4]: −2,457 mmHg/s | CT (contraction time) [5]: 61.4 ± 0.6 ms | EDP (left-ventricular end-diastolic pressure) [5]: 15.7 mmHg | FT (filling time) [5]: 535 ± 46 ms | HR (heart rate) [5]: 85 bpm | MSP (left-ventricular mean systolic pressure) [5]: 138 mmHg | RT (relaxation time) [5]: 87 ± 1 ms | S/D (systolic to diastolic ratio, SET/RT + FT) [5]: 0.26 | SET (systolic ejection time) [5]: 155 ± 2 ms | Tau (left-ventricular relaxation time-constant) [5]: 27.9 ± 1.4 ms | Vmax (estimated maximal velocity of myocardial contractile-element shortening) [5]: 37.1 ± 1.1 s⁻¹ | dP/dtmax (peak rate of LV pressure change during systole) [5]: 2,661 mmHg/s | dP/dtmin (peak rate of LV pressure change during diastole) [5]: −2,407 mmHg/s | CT [6]: 61 ± 1 ms | FT [6]: 577 ± 49 ms | HR [6]: 82 ± 5 bpm | LV-EDP [6]: 16 ± 2 mmHg | LV-MSP [6]: 137 ± 3 mmHg | LV-Tau [6]: 28.5 ± 1.4 ms | LV-Vmax [6]: 37.0 ± 1.0 s⁻¹ | LV-dP/dtmax [6]: 2,644 ± 79 mmHg/s | LV-dP/dtmin [6]: −2,367 ± 91 mmHg/s | RT [6]: 88 ± 1 ms | S/D [6]: 0.24 ± 0.01 | SET [6]: 157 ± 2 ms | CT change vs. CTRL [7]: (−9 ± 1) % | LV-MSP change vs. CTRL [7]: (4 ± 2) % | LV-Tau change vs. CTRL [7]: (−3 ± 3) % | LV-Vmax change vs. CTRL [7]: (5 ± 3) % | LV-dP/dtmin change vs. CTRL [7]: (8 ± 3) % | RT change vs. CTRL [7]: (−2 ± 2) % | SET change vs. CTRL [7]: (4 ± 2) %
